Test results as given in article PMC12261219, “Comparative Evaluation of Thiol- and Amine-Conjugating Moieties for Endogenous Albumin Binding after Intravenous Administration” (ACS Pharmacology & Translational Science, 2025).

Key:
IgG = assay: SEC-ICP-MS with single serum protein solution: IgG; format: binding, human; conditions: 200 μM IgG, 100 μM compound, 100 mM PB pH 7.4, 37 °C, 2 h
Experimental: (§1) All investigated proteins were purchased from commercial suppliers: Albumin (Sigma-Aldrich, A8763), IgG (Athens Research, 16–16–090707), α1-antitrypsin (Sigma-Aldrich, A6150) and apotransferrin (Sigma-Aldrich, T1147). […] The compound stocks were diluted into the protein solution to reach a final concentration of 100 μM (27 μL protein and 3 μL compound). The samples were incubated at 37 °C for 2 h and analyzed as described for the SEC-ICP-MS studies (Tables S6 and S7).

albumin = target: T1, albumin (Homo sapiens, UniProt P02768); assay: SEC-ICP-MS with single serum protein solution: albumin; format: binding; conditions: 200 μM albumin, 100 μM compound, 100 mM PB pH 7.4, 37 °C, 2 h
T1 construct: purchased Sigma-Aldrich A8763
T1 sequence (P02768 25-609): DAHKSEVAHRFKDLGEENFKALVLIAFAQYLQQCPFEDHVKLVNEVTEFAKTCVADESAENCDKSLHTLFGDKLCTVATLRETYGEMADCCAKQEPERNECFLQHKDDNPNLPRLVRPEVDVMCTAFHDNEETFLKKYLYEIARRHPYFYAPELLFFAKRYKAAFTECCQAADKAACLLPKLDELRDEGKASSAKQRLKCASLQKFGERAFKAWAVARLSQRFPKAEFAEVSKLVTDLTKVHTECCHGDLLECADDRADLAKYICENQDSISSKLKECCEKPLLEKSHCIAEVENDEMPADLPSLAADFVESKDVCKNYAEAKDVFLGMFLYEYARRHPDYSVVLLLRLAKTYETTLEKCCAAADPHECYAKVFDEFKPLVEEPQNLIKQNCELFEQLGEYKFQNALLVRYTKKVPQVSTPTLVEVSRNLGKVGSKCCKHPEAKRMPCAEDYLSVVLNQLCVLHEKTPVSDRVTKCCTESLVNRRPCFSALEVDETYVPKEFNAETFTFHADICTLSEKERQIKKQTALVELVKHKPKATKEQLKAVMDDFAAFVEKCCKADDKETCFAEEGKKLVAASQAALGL
Experimental: as §1

apotransferrin = target: T2, apotransferrin (Homo sapiens, UniProt P02787); assay: SEC-ICP-MS with single serum protein solution: apotransferrin; format: binding; conditions: 200 μM apotransferrin, 100 μM compound, 100 mM PB pH 7.4, 37 °C, 2 h
T2 construct: purchased Sigma-Aldrich T1147
T2 sequence (P02787 20-698): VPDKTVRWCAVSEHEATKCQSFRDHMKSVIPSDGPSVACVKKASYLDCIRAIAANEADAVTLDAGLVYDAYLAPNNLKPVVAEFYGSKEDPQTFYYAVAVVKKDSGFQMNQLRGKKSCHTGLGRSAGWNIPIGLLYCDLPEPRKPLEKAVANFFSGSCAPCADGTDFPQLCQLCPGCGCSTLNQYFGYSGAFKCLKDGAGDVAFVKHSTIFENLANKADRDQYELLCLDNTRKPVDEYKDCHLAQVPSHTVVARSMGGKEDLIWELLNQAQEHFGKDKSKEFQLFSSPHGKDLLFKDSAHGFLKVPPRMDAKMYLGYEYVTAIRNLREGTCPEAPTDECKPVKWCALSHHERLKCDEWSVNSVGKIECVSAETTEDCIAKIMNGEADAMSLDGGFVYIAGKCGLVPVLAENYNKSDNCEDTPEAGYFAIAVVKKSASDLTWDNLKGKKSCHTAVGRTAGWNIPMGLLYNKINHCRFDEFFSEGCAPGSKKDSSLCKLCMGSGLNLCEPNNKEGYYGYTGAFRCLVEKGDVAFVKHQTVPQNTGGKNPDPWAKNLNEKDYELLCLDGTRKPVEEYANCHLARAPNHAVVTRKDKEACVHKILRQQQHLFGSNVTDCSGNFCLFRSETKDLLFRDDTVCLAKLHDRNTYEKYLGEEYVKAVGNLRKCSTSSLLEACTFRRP
Experimental: as §1

CT26 colon cancer cells = conditions: i.v.
Experimental: CT26 cells (5 × 10^5 in serum-free medium) were injected s.c. into the right flank of male Balb/c mice. […] 0.9% NaCl served as solvent control. Animals were controlled for distress development every day and tumor size was assessed regularly by caliper measurement. Tumor volume was calculated using the formula: (length × width^2)/2. In the overall survival experiments, mice were sacrificed by cervical dislocation in the case of a tumor length >20 mm, tumor ulceration or body weight loss >20%.

[1] = equimolar to 9 mg/kg oxaliplatin, days 4, 8, 12

## CC(=O)[O][Pt-2]12([O]C(=O)NCCOCCOCCOCCOC(=O)C3=CCCCC3S(=O)(=O)Nc3ccc(F)cc3F)([NH2+]C3CCCCC3[NH2+]1)[O]C(=O)C(=O)[O]2 (mixture of isomers) [DFSA-Ox-OAc, (OC-6–34)-Acetato[(1R,2R)-1,2-cyclohexane-1,2-diamino][(1-(6-(N-(2,4-difluorophenyl)-sulfamoyl)-cyclohex-1-en-1-yl)-1-oxo-2,5,8,11-tetraoxatridecan-13-yl)-carbamato]-oxalato platinum(IV)]
IgG
  Platinum in the HMWF (protein-bound): < 5%
albumin
  Platinum in the HMWF (protein-bound): 26%
apotransferrin
  Platinum in the HMWF (protein-bound): < 5%

## CC(=O)[O][Pt-2]12([O]C(=O)NCCOCCOCCOCCOCCN3C(=O)C=CC3=O)([NH2+][C@@H]3CCCC[C@H]3[NH2+]1)[O]C(=O)C(=O)[O]2 [Mal-Ox-OAc, (OC-6–34)-Acetato[(1R,2R)-1,2-cyclohexane-1,2-diamino][ (14-(2,5-dioxo-2,5-dihydro-1H-pyrrol-1-yl)-3,6,9,12-tetraoxatetradecyl)-carbamato]-oxalato platinum(IV)]
IgG
  Platinum in the HMWF (protein-bound): less than 20%
albumin
  Platinum in the HMWF (protein-bound): 75%
apotransferrin
  Platinum in the HMWF (protein-bound): less than 10%
CT26 colon cancer cells; [1]
  Impact on tumor growth: distinctly reduced tumor growth
  Increase of overall survival compared to solvent control: ~50%
  Prolonged overall survival compared to solvent-treated animals: about 10 days

## CC(=O)[O][Pt-2]12([O]C(=O)NCCOCCOCCOCCOc3ccc(-c4nnc(S(C)(=O)=O)o4)cc3)([NH2+][C@@H]3CCCC[C@H]3[NH2+]1)[O]C(=O)C(=O)[O]2 [PODS-Ox-OAc, (OC-6–34)-Acetato[(1R,2R)-1,2-cyclohexane-1,2-diamino][(2-(2-(2-(2-(4-(5-(methylsulfonyl)-1,3,4-oxadiazol-2-yl)-phenoxy)-ethoxy)-ethoxy)-ethoxy)-ethyl)-carbamato]-oxalato platinum(IV)]
IgG
  Platinum in the HMWF (protein-bound): less than 20%
albumin
  Platinum in the HMWF (protein-bound): 69%
apotransferrin
  Platinum in the HMWF (protein-bound): less than 10%
CT26 colon cancer cells; [1]
  Impact on tumor growth: slight remission or stable disease
  Increase of overall survival compared to solvent control: ~80%
CT26 colon cancer cells; three administrations over 2 weeks (days 4, 8, 12)
  Tolerability (body weight): well-tolerated
